pEC50: −log10 of the molar value.
Target: T1, RXFP2 (Homo sapiens, UniProt Q8WXD0)
T1 construct: expressed in transfected cells
Assay: HTRF cAMP assay in HEK293T cells stably expressing RXFP2 (HEK-RXFP2)
Assay type: cell-based
Details: condition (b): 10,000 cells/well, IBMX 200 μM; for % EFF vs. 1 nM INSL3 (b): normalized to 1 nM INSL3 cAMP response
Experimental: Compound efficacy and EC50 were determined by measuring cAMP induction in vitro. HEK293T cells stably expressing RXFP2 (HEK-RXFP2) produce cAMP when RXFP2 is activated, which can be measured in an antibody-based immunoassay utilizing a fluorescent readout (cAMP Gs HiRange Kit, PerkinElmer, Waltham, MA). HEK-RXFP2 cells were seeded in 96-well plates in serum-free DMEM and incubated overnight at 37° C., 5% CO2. Plates were then treated with a compound titration up to 25 μM or INSL3 control, in the presence of isobutylmethylxanthine phosphodiesterase inhibitor (IBMX) at 200 μM to amplify the cAMP signal, for 1 hour at 37° C., 5% CO2 before being processed as per kit instructions. Table 7 lists the efficacy and EC50 of compounds tested under different experimental conditions. […] In condition (a), 20,000 cells were seeded per well in the 96 well plate, and efficacy was determined by normalizing the maximum compound cAMP response to the 1 nM INSL3 cAMP response (% Efficacy 1 nM INSL3 (a)). In condition (b), 10,000 cells were seeded per well, and compound response was normalized to the 1 nM INSL3 cAMP response (% Efficacy 1 nM INSL3 (b)). In condition (c), 7,500 cells were seeded per well, compound response was normalized to the 100 nM INSL3 cAMP response, and IBMX was omitted (% Efficacy 100 nM INSL3 (c)). A range is given when compounds were tested multiple times. Where compounds were tested under multiple experimental conditions, the EC50 listed for the corresponding condition is marked (a) through (c) to correlate. When EC50 could not be calculated from the dose-response curve, EC50 is listed as not determined (ND).

T1 sequence (Q8WXD0 whole entry): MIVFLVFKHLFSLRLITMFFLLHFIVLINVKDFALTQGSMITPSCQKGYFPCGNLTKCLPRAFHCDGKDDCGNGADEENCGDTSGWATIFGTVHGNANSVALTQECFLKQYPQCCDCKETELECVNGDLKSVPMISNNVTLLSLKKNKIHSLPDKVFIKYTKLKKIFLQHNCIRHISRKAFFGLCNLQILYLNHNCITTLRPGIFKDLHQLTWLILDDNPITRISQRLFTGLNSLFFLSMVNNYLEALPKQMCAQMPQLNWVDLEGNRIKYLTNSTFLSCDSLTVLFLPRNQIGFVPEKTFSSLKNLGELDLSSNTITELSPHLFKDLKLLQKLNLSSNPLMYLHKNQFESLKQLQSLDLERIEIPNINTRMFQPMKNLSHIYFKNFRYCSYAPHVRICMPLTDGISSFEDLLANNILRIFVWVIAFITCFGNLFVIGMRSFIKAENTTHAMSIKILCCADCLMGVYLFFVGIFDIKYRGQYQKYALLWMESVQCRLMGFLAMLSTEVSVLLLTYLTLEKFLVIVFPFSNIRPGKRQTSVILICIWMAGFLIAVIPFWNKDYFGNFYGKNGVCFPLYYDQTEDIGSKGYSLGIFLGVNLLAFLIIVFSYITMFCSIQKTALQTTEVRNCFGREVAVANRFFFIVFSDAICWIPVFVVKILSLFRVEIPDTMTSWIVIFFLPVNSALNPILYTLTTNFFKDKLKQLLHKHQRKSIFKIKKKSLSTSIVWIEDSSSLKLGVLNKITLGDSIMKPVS

SMILES | pEC50 | % EFF vs. 1 nM INSL3 (b)
Cc1cc(OC(F)(F)F)ccc1OCC(=O)N1CCN2C(=O)c3cc(-c4cc(F)cc(C(F)(F)F)c4)ccc3NC(=O)[C@@H]2C1 [Example 141, (S)-8-(3-fluoro-5-(trifluoromethyl)phenyl)-2-(2-(2-methyl-4-(trifluoromethoxy)phenoxy)acetyl)-1,3,4,12a-tetrahydrobenzo[e]pyrazino[1,2-a][1,4]diazepine-6,12 (2H, 11H)-dione] | 7.26 to 7.44 | 95.53-115.85%
Cc1cc(-c2ccc3c(c2)C(=O)N2CCN(C(=O)COc4ccc(OC(F)(F)F)cc4Cl)C[C@H]2CN3)cc(C(F)(F)F)c1.O=C(O)C(F)(F)F [Example 151, (R)-2-(2-(2-chloro-4-(trifluoromethoxy)phenoxy)acetyl)-8-(3-methyl-5-(trifluoromethyl)phenyl)-1,3,4,11,12,12a-hexahydrobenzo[e]pyrazino[1,2-a][1,4]diazepin-6 (2H)-one-2,2,2-trifluoroacetate] | – | 0.85%
Cc1cc(OC(F)(F)F)ccc1OCC(=O)N1CCN2C(=O)c3cc(-c4cc(Cl)cc(C(F)(F)F)c4)ccc3NC(=O)[C@@H]2C1 [Example 164, (S)-8-(3-chloro-5-(trifluoromethyl)phenyl)-2-(2-(2-methyl-4-(trifluoromethoxy)phenoxy)acetyl)-1,3,4,12a-tetrahydrobenzo[e]pyrazino[1,2-a][1,4]diazepine-6,12 (2H, 11H)-dione] | – | 126.02%
Cc1cc(OC(F)F)ccc1OCC(=O)N1CCN2C(=O)c3cc(-c4cccc(C(F)(F)F)c4)ccc3NC(=O)[C@@H]2C1 [Example 166, (S)-2-(2-(4-(difluoromethoxy)-2-methylphenoxy)acetyl)-8-(3-(trifluoromethyl)phenyl)-1,3,4,12a-tetrahydrobenzo[e]pyrazino[1,2-a][1,4]diazepine-6,12 (2H, 11H)-dione] | 6.63 | 132.67%
Cc1cc(OC(F)F)ccc1OCC(=O)N1CCN2C(=O)c3cc(-c4cc(C(F)(F)F)cc(C(F)(F)F)c4)ccc3NC(=O)[C@@H]2C1 [Example 167, (S)-2-(2-(4-(difluoromethoxy)-2-methylphenoxy)acetyl)-8-(3-(trifluoromethyl)-5-(trifluoromethyl)phenyl)-1,3,4,12a-tetrahydrobenzo[e]pyrazino[1,2-a][1,4]diazepine-6,12 (2H, 11H)-dione] | 6.85 | 113.26%
Cc1cc(-c2ccc3c(c2)C(=O)N2CCN(C(=O)COc4ccc(OC(F)F)cc4C)C[C@H]2C(=O)N3)cc(C(F)(F)F)c1 [Example 168, (S)-2-(2-(4-(Difluoromethoxy)-2-methylphenoxy)acetyl)-8-(3-methyl-5-(trifluoromethyl)phenyl)-1,3,4,12a-tetrahydrobenzo[e]pyrazino[1,2-a][1,4]diazepine-6,12 (2H, 11H)-dione] | – | 131.20%
Cc1cc(OC(F)F)ccc1OCC(=O)N1CCN2C(=O)c3cc(-c4cc(O)cc(C(F)(F)F)c4)ccc3NC(=O)[C@@H]2C1 [Example 172] | – | 70.66%
O=C1Nc2ccc(-c3cc(O)cc(C(F)(F)F)c3)cc2C(=O)N2CCN(C(=O)COc3ccc(OC(F)(F)F)cc3Br)C[C@@H]12 [Example 173, (S)-2-(2-(2-Bromo-4-(trifluoromethoxy)phenoxy)acetyl)-8-(3-hydroxy-5-(trifluoromethyl)phenyl)-1,3,4,12a-tetrahydrobenzo[e]pyrazino[1,2-a][1,4]diazepine-6,12 (2H, 11H)-dione] | 7.19 | 114.71%

The remaining lines, values ahead:

pEC50 | % EFF vs. 1 nM INSL3 (b) | SMILES
7.92 | 84.99% | O=C1Nc2ccc(-c3cc(C(F)(F)F)ccc3F)cc2C(=O)N2CCN(C(=O)COc3ccc(OC(F)(F)F)cc3Cl)C[C@@H]12 [Example 127, (S)-2-(2-(2-chloro-4-(trifluoromethoxy)phenoxy)acetyl)-8-(2-fluoro-5-(trifluoromethyl)phenyl)-1,3,4,12a-tetrahydrobenzo[e]pyrazino[1,2-a][1,4]diazepine-6,12 (2H, 11H)-dione]
– | 54.37% | O=C1Nc2ccc(-c3cc(C(F)(F)F)ccc3F)cc2C(=O)N2CCN(C(=O)COc3ccc(OC(F)(F)F)cc3Cl)C[C@H]12 [Example 130, (R)-2-(2-(2-chloro-4-(trifluoromethoxy)phenoxy)acetyl)-8-(2-fluoro-5-(trifluoromethyl)phenyl)-1,3,4,12a-tetrahydrobenzo[e]pyrazino[1,2-a][1,4]diazepine-6,12 (2H, 11H)-dione]
– | 68.09% | O=C1Nc2ccc(-c3cc(C(F)(F)F)ccc3F)cc2C(=O)N2CCN(C(=O)COc3ccc(C(F)(F)F)cc3Cl)C[C@@H]12 [Example 132, (S)-2-(2-(2-chloro-4-(trifluoromethyl)phenoxy)acetyl)-8-(2-fluoro-5-(trifluoromethyl)phenyl)-1,3,4,12a-tetrahydrobenzo[e]pyrazino[1,2-a][1,4]diazepine-6,12 (2H, 11H)-dione]
7.05 to 7.17 | 92.5-107.57% | Cc1ccc(C(F)(F)F)cc1-c1ccc2c(c1)C(=O)N1CCN(C(=O)COc3ccc(OC(F)(F)F)cc3Cl)C[C@H]1C(=O)N2 [Example 136, (S)-2-(2-(2-Chloro-4-(trifluoromethoxy)phenoxy)acetyl)-8-(2-methyl-5-(trifluoromethyl)phenyl)-1,3,4,12a-tetrahydrobenzo[e]pyrazino[1,2-a][1,4]diazepine-6,12 (2H, 11H)-dione]
– | 53.62% | Cc1ccc(C(F)(F)F)cc1-c1ccc2c(c1)C(=O)N1CCN(C(=O)COc3ccc(C(F)(F)F)cc3Cl)C[C@H]1C(=O)N2 [Example 137, (S)-2-(2-(2-chloro-4-(trifluoromethyl)phenoxy)acetyl)-8-(2-methyl-5-(trifluoromethyl)phenyl)-1,3,4,12a-tetrahydrobenzo[e]pyrazino[1,2-a][1,4]diazepine-6,12 (2H, 11H)-dione]
7.32 | 80.32% | O=C1Nc2ccc(-c3cc(F)cc(C(F)(F)F)c3)cc2C(=O)N2CCN(C(=O)COc3ccc(C(F)(F)F)cc3Cl)C[C@@H]12 [Example 142, (S)-2-(2-(2-chloro-4-(trifluoromethyl)phenoxy)acetyl)-8-(3-fluoro-5-(trifluoromethyl)phenyl)-1,3,4,12a-tetrahydrobenzo[e]pyrazino[1,2-a][1,4]diazepine-6,12 (2H, 11H)-dione]
– | 47.43% | O=C1Nc2ccc(-c3cccc(C(F)(F)F)c3)cc2C(=O)N2CCN(C(=O)COc3ccc(C(F)(F)F)c(F)c3F)C[C@@H]12 [Example 146, (S)-2-(2-(2,3-difluoro-4-(trifluoromethyl)phenoxy)acetyl)-8-(3-(trifluoromethyl)phenyl)-1,3,4,12a-tetrahydrobenzo[e]pyrazino[1,2-a][1,4]diazepine-6,12 (2H, 11H)-dione]
7.65 | 103.32% | Cc1cc(-c2ccc3c(c2)C(=O)N2CCN(C(=O)COc4ccc(OC(F)(F)F)cc4Cl)C[C@H]2C(=O)N3)cc(C(F)(F)F)c1 [Example 150, (S)-2-(2-(2-chloro-4-(trifluoromethoxy)phenoxy)acetyl)-8-(3-methyl-5-(trifluoromethyl)phenyl)-1,3,4,12a-tetrahydrobenzo[e]pyrazino[1,2-a][1,4]diazepine-6,12 (2H, 11H)-dione]
7.41 | 108.89% | O=C1Nc2ccc(-c3cc(C(F)(F)F)cc(C(F)(F)F)c3)cc2C(=O)N2CCN(C(=O)COc3ccc(OC(F)(F)F)cc3Cl)C[C@@H]12 [Example 157, (S)-8-(3,5-Bis(trifluoromethyl)phenyl)-2-(2-(2-chloro-4-(trifluoromethoxy)phenoxy)acetyl)-1,3,4,12a-tetrahydrobenzo[e]pyrazino[1,2-a][1,4]diazepine-6,12 (2H, 11H)-dione]
6.92 | 130.93% | O=C1Nc2ccc(-c3cc(Cl)cc(C(F)(F)F)c3)cc2C(=O)N2CCN(C(=O)COc3ccc(OC(F)(F)F)cc3Br)C[C@@H]12 [Example 162, (S)-2-(2-(2-Bromo-4-(trifluoromethoxy)phenoxy)acetyl)-8-(3-chloro-5-(trifluoromethyl)phenyl)-1,3,4,12a-tetrahydrobenzo[e]pyrazino[1,2-a][1,4]diazepine-6,12 (2H, 11H)-dione]
– | 114.25% | O=C1Nc2ccc(-c3cc(Cl)cc(C(F)(F)F)c3)cc2C(=O)N2CCN(C(=O)COc3ccc(OC(F)(F)F)cc3Cl)C[C@@H]12 [Example 163, (S)-2-(2-(2-chloro-4-(trifluoromethoxy)phenoxy)acetyl)-8-(3-chloro-5-(trifluoromethyl)phenyl)-1,3,4,12a-tetrahydrobenzo[e]pyrazino[1,2-a][1,4]diazepine-6,12 (2H, 11H)-dione]

Reference: patent US20250134907A1, “FUSED DIAZEPINES AS AGONISTS OF THE INSULIN-LIKE 3 (INSL3) PEPTIDE RECEPTOR RXFP2 AND METHODS OF USE THEREOF” (The United States of America,as represented by the …, priority 2022, published 2025)
